In patent US20260184663A1, “INDENE COMPOUNDS, PHARMACEUTICAL COMPOSITIONS THEREOF, AND THEIR THERAPEUTIC APPLICATIONS” (NucMito Pharmaceuticals co. Ltd., priority 2022, published 2026) one finds inhibition data, which are given here for 6 molecules.

The structures appear in SMILES notation.

Common to all, as to type: cell-based
In test [1] the test system is HeLa (cervical cancer). Put plainly: Antiproliferative activity (CCK-8 cell viability), HeLa. Conditions: Homo sapiens, 72 h, read-out: Antiproliferative activity in cancerous cells, HELA (inhibition of cell growth); for inhibition at 3.3 µM: Compound concentration: 3.3 μM; for inhibition at 10 µM: Compound concentration: 10 μM. In outline:
(§1)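 Cells grown in DMEM (HepG2, SW480), MEM (HeLa) or F-12K (A549), each with 10% FBS, then exposed to compound at 3.3, 10 or 30 μM for 72 h at 37 °C. CCK-8 absorbance at 450 nm; viability expressed as percent of DMSO-treated cells, graded as growth inhibition bands.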

Test [2] relates to SW480 (colon cancer). Put plainly: Antiproliferative activity (CCK-8 cell viability), SW480. To be noted: Homo sapiens, 72 h, read-out: Antiproliferative activity in cancerous cells, SW480 (inhibition of cell growth); for inhibition at 3.3 µM: Compound concentration: 3.3 μM; for inhibition at 10 µM: Compound concentration: 10 μM. The procedure, abridged: as §1
In test [3] the test system is A549 (lung adenocarcinoma). The experiment in a line: Antiproliferative activity (CCK-8 cell viability), A549. Conditions: Homo sapiens, 72 h, read-out: Antiproliferative activity in cancerous cells, A549 (inhibition of cell growth); for inhibition at 3.3 µM: Compound concentration: 3.3 μM; for inhibition at 10 µM: Compound concentration: 10 μM. In outline: as §1
Test [4] concerns alpha-smooth muscle actin (α-SMA). Put plainly: Inhibition of TGF-β induced expression of alpha-smooth muscle actin (α-SMA) in CFSC cells (western blot). To be noted: compound at 10 μM, TGF-β (10 ng/mL), 24 hours, band intensity vs TGF-β only. In outline:
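Values are percent reduction of α-SMA band intensity relative to cells given TGF-β alone, quantified by Western blot densitometry with β-actin probed. Compound was applied at 10 μM alongside 10 ng/mL TGF-β to serum-free CFSC cultures for 24 h at 37 °C.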

For test [5], the system named is HepG2 (liver cancer). The experiment in a line: Antiproliferative activity (CCK-8 cell viability), HepG2. Conditions: Homo sapiens, 72 h, read-out: Antiproliferative activity in cancerous cells, HepG2 (inhibition of cell growth); for inhibition at 3.3 µM: Compound concentration: 3.3 μM; for inhibition at 10 µM: Compound concentration: 10 μM. In outline:
as §1

For test [6], the system named is A431 (epidermoid carcinoma). The experiment in a line: Antiproliferative activity (CCK-8 cell viability), A431. To be noted: Homo sapiens, 72 h, read-out: Antiproliferative activity in cancerous cells, A431 (inhibition of cell growth); for inhibition at 3.3 µM: A-431, Compound concentration: 3.3 μM; for inhibition at 10 µM: A-431, Compound concentration: 10 μM. The procedure, abridged:
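A431 epidermoid carcinoma cells grown in DMEM with 10% FBS were plated at 2,000-5,000 cells/well in 96-well plates. After attachment they were exposed to compound at 3.3 μM, 10 μM, or 30 μM for 72 h at 37° C. Viability was then assessed by CCK-8 against DMSO vehicle-treated wells.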

In test [7] the test system is MDA-MB-231 (breast cancer). The experiment in a line: Antiproliferative activity (CCK-8 cell viability), MDA-MB-231. Conditions: Homo sapiens, 72 h, read-out: Antiproliferative activity in cancerous cells, MDA-MB-231 (inhibition of cell growth); for inhibition at 3.3 µM: Compound concentration: 3.3 μM; for inhibition at 10 µM: Compound concentration: 10 μM. In outline:
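MDA-MB-231 breast cancer cells, grown in DMEM with 10% FBS, were plated in 96-well plates at 2,000-5,000 cells/well. Once attached, they were exposed to compound and incubated at 37° C. for 72 h. Viability was then measured with CCK-8 (10 μL per well, 4 h at 37° C.) by absorbance at 450 nm, relative to DMSO vehicle wells.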

The test system of test [8] is B16F10 (malignant melanoma). Put plainly: Antiproliferative activity (CCK-8 cell viability), B16F10. Conditions: Mus musculus, 72 h, read-out: Antiproliferative activity in cancerous cells, B16F10 (inhibition of cell growth); for inhibition at 3.3 µM: B16-F10, Compound concentration: 3.3 μM; for inhibition at 10 µM: B16-F10, Compound concentration: 10 μM. In outline: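 B16F10 melanoma cells grown in DMEM with 10% FBS were plated in 96-well plates at 2,000-5,000 cells/well. After attachment they were exposed to compound in medium for 72 h at 37° C. CCK-8 solution (10 μL) was then added, and after 4 h at 37° C absorbance was read at 450 nm.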

Broadly, the inhibition is the percentage by which the read-out fell short of the control. For the molecule `CC1=C(CC(=O)O)c2c(F)cc(F)cc2/C1=C\c1cccc(C(F)(F)F)c1` [D6, (Z)-2-(4,6-Difluoro-2-methyl-1-(3-(trifluoromethyl)benzylidene)-1H-inden-3-yl)-acetic acid], the inhibition at 3.3 µM in test [1], in test [2], in test [3], in test [5], in test [6] and in test [7] was less than 30% each time. Besides, the inhibition at 3.3 µM in test [8] was less than 30%. The inhibition at 10 µM in test [1], in test [2], in test [3], in test [4], in test [5] and in test [6] was less than 30% each time. Further, the inhibition at 10 µM in test [7] and in test [8] was less than 30% throughout. Moreover, the inhibition at 30 µM in test [1] (Compound concentration: 30 μM) is not below 50%; in test [2] (Compound concentration: 30 μM) it was 30 to 50%; in test [3] (Compound concentration: 30 μM), not below 50%; in test [5] (Compound concentration: 30 μM) it was 30 to 50%; in test [6] (A-431, Compound concentration: 30 μM), less than 30%; in test [7] (Compound concentration: 30 μM) it was not below 50%. For the same molecule, the inhibition at 30 µM in test [8] (B16-F10, Compound concentration: 30 μM) was less than 30%.

On to `CC1=C(Cc2noc(=O)[nH]2)c2cc(F)ccc2/C1=C\c1cccc(Oc2ccccc2)c1` [C32, (Z)-3-((5-Fluoro-2-methyl-1-(3-phenoxybenzylidene)-1H-inden-3-yl)methyl)-1,2,4-oxadiazol-5(4H)-one], for which the inhibition at 3.3 µM was less than 30% in test [1]; less than 30% in test [2]; less than 30% in test [3]; less than 30% in test [5]; less than 30% in test [6]; not below 50% in test [7]. For the same molecule, in test [8], the inhibition at 3.3 µM was less than 30%. Besides, the inhibition at 10 µM is 30 to 50% in test [1]; less than 30% in test [2]; less than 30% in test [3]; less than 30% in test [4]; less than 30% in test [5]; less than 30% in test [6]. Further, the inhibition at 10 µM in test [7] was not below 50%; in test [8], 30 to 50%.

As for `CC1=C(CC(=O)O)c2c(F)cccc2/C1=C\c1ccc(COc2ccccc2)cc1` [B6, (Z)-2-(4-Fluoro-2-methyl-1-(4-(phenoxymethyl)benzylidene)-1H-inden-3-yl)-acetic acid], the inhibition at 3.3 µM is less than 30% in test [1]; less than 30% in test [2]; 30 to 50% in test [3]; less than 30% in test [5]; less than 30% in test [6]; not below 50% in test [7]. Moreover, the inhibition at 3.3 µM in test [8] is less than 30%. Moreover, the inhibition at 10 µM in test [1] is not below 50%; in test [2], less than 30%; in test [3] it was 30 to 50%; in test [4] it was more than 80%; in test [5], not below 50%; in test [6] it was not below 50%. Further, the results for the inhibition at 10 µM in test [7] and in test [8] were not below 50% and 30 to 50%, respectively.

Consider `O=C(O)CC1=C(Cc2ccc(Oc3ccc(F)cc3)cc2)/C(=C/c2ccc(C(F)(F)F)cc2)c2ccc(F)cc21` [A108, (Z)-2-(5-Fluoro-2-(4-(4-fluorophenoxy)benzyl)-1-(4-(trifluoromethyl)-benzylidene)-1H-inden-3-yl)acetic acid], for which the inhibition at 3.3 µM was less than 30% in test [1]; less than 30% in test [2]; not below 50% in test [3]; less than 30% in test [5]; not below 50% in test [6]; not below 50% in test [7]. Moreover, in test [8], the inhibition at 3.3 µM was not below 50%. In addition, the inhibition at 10 µM in test [1] was not below 50%; in test [2], not below 50%; in test [3], not below 50%; in test [4], more than 80%; in test [5], less than 30%; in test [6] it was not below 50%. The inhibition at 10 µM in test [7] and in test [8] was not below 50% throughout.

Consider `COc1ccc2c(c1)/C(=C\c1ccc(Oc3ccc(F)cc3)cc1)C(C)=C2CC(=O)O` [C1, (Z)-2-(1-(4-(4-Fluorophenoxy)benzylidene)-6-methoxy-2-methyl-1H-inden-3-yl)-acetic acid], for which the inhibition at 3.3 µM in test [1] is not below 50%; in test [2] it was not below 50%; in test [3], less than 30%; in test [5], less than 30%; in test [6] it was 30 to 50%; in test [7], not below 50%. In addition, in test [8], the inhibition at 3.3 µM lay in the range of 30 to 50%. Also, the inhibition at 10 µM in test [1] was not below 50%; in test [2], not below 50%; in test [3], less than 30%; in test [4], more than 80%; in test [5], less than 30%; in test [6] it was not below 50%. Moreover, the inhibition at 10 µM in test [7] and in test [8] was not below 50% each time.

Take `CCc1ccc2c(c1)C(CC(=O)O)=C(C)/C2=C/c1cccc(Oc2ccccc2)c1` [C18, (Z)-2-(5-Ethyl-2-methyl-1-(3-phenoxybenzylidene)-1H-inden-3-yl)acetic acid]: the inhibition at 3.3 µM is less than 30% in test [1]; not below 50% in test [2]; 30 to 50% in test [3]; 30 to 50% in test [5]; not below 50% in test [6]; 30 to 50% in test [7]. Also, the inhibition at 3.3 µM in test [8] is not below 50%. Besides, the inhibition at 10 µM was 30 to 50% in test [1]; not below 50% in test [2]; not below 50% in test [3]; less than 30% in test [4]; not below 50% in test [5]; not below 50% in test [6]. Moreover, the inhibition at 10 µM in test [7] and in test [8] was not below 50% throughout.
